Results reported in ChEMBL document CHEMBL1127066, “Discovery and structure-activity relationship of a series of 1-carba-1-dethiacephems exhibiting activity against methicillin-resistant Staphylococcus aureus” (J Med Chem, 1993).

Experiments:
Type in all cases: functional
[1] = system: Haemophilus influenzae; experiment: In vitro antimicrobial activity against Haemophilus influenzae C.L. strain
[2] = system: Staphylococcus aureus; experiment: In vitro antimicrobial activity against Staphylococcus aureus S13E strain
[3] = system: Pseudomonas aeruginosa; experiment: Antimicrobial activity against Pseudomonas PS18 strain
[4] = system: Staphylococcus epidermidis; experiment: In vitro antimicrobial activity against Staphylococcus epidermidis 222 strain
[5] = system: Escherichia coli; experiment: In vitro evaluation of antimicrobial activity against Escherichia coli EC14 strain
[6] = system: Klebsiella; experiment: In vitro antimicrobial activity against Klebsiella X26 strain
[7] = system: Staphylococcus aureus; experiment: In vitro antimicrobial activity against Staphylococcus aureus X400 strain
[8] = system: Staphylococcus epidermidis; experiment: In vitro antimicrobial activity against Staphylococcus epidermidis 270 strain
[9] = system: Enterobacter cloacae; experiment: In vitro evaluation of antimicrobial activity against Enterobacter cloacae EB5 strain
[10] = system: Streptococcus pneumoniae; experiment: In vitro antimicrobial activity against Streptococcus pneumoniae PARK strain
[11] = system: Staphylococcus aureus; experiment: In vitro antimicrobial activity against Staphylococcus aureus X1.1 strain
[12] = system: Pseudomonas aeruginosa; experiment: In vitro antimicrobial activity against Pseudomonas X239 strain

| SMILES | MIC [1] [µg/mL] | MIC [2] [µg/mL] | MIC [3] [µg/mL] | MIC [4] [µg/mL] | MIC [5] [µg/mL] | MIC [6] [µg/mL] | MIC [7] [µg/mL] | MIC [8] [µg/mL] | MIC [9] [µg/mL] | MIC [10] [µg/mL] | MIC [11] [µg/mL] | MIC [12] [µg/mL] |
| --- | --- | --- | --- | --- | --- | --- | --- | --- | --- | --- | --- | --- |
| Nc1nc(/C(=N\OCCF)C(=O)N[C@@H]2C(=O)N3C(C(=O)[O-])=C(Sc4ccccc4)CC[C@H]23)cs1.[Na+] | 0.03 | 64 | 64 | 2 | 0.5 | 0.03 | 128 | 2 | 4 | 0.015 | 0.5 | 128 |
| Nc1nc(/C(=N\OCCF)C(=O)N[C@@H]2C(=O)N3C(C(=O)[O-])=C(SC4=NCCS4)CC[C@H]23)cs1.[Na+] | < 0.008 | 16 | 64 | 1 | 0.125 | 0.015 | 64 | 2 | 1 | < 0.008 | 0.5 | < 128 |
| Nc1nc(/C(=N\OCCF)C(=O)N[C@@H]2C(=O)N3C(C(=O)[O-])=C(Sc4nc5ccccc5o4)CC[C@H]23)cs1.[Na+] | 0.03 | 2 | 32 | 1 | 0.25 | 0.015 | 64 | 2 | 1 | < 0.008 | 0.125 | 32 |
| Nc1nc(/C(=N\OCCF)C(=O)N[C@@H]2C(=O)N3C(C(=O)[O-])=C(Sc4nccs4)CC[C@H]23)cs1.[Na+] | < 0.008 | 16 | 32 | 0.5 | 0.125 | < 0.008 | 64 | 4 | 1 | < 0.008 | 0.25 | 128 |
| Nc1nc(/C(=N\OCCF)C(=O)N[C@@H]2C(=O)N3C(C(=O)[O-])=C(Sc4nc(-c5ccncc5)cs4)CC[C@H]23)cs1.[Na+] | 0.03 | 8 | > 128 | 0.5 | 0.25 | 0.03 | 32 | 2 | 2 | < 0.008 | 0.125 | > 128 |
| Cn1c(SC2=C(C(=O)[O-])N3C(=O)[C@@H](NC(=O)/C(=N/OCCF)c4csc(N)n4)[C@H]3CC2)n[nH]c(=O)c1=O.[Na+] | 0.03 | 64 | 32 | 2 | 0.06 | 0.06 | 128 | 8 | 0.5 | 0.015 | 0.5 | 32 |
| Nc1nc(/C(=N\OCCF)C(=O)N[C@@H]2C(=O)N3C(C(=O)[O-])=C(Sc4nnc(O)c(O)n4)CC[C@H]23)cs1.[Na+] | 0.03 | – | > 128 | 8 | 0.06 | 0.06 | > 128 | 32 | 0.5 | 0.06 | 4 | > 128 |
| Nc1nc(/C(=N\OCCF)C(=O)N[C@@H]2C(=O)N3C(C(=O)[O-])=C(Sc4nc(C(=O)O)cs4)CC[C@H]23)cs1.[Na+] | 0.015 | – | 128 | 4 | 0.25 | 0.25 | > 128 | 8 | 4 | 0.015 | 2 | > 128 |
| Cn1ccnc1SC1=C(C(=O)[O-])N2C(=O)[C@@H](NC(=O)/C(=N/OCCF)c3csc(N)n3)[C@H]2CC1.[Na+] | 0.03 | – | > 128 | 8 | 0.5 | 0.06 | > 128 | 32 | 4 | < 0.008 | 4 | > 128 |
